Experimental data as given in paper PMC11062899, “De novo development of small cyclic peptides that are orally bioavailable” (Nature Chemical Biology, 2023).
Several values for one entry are separate records, joined by “and”; a condition that tells them apart may be missing. Identical values can stand only once. Like-named read-outs stand apart in the source and are kept apart here.

Columns and labels:
rat α-thrombin = target: T1, rat α-thrombin (Rattus norvegicus, UniProt P18292); experiment: Protease inhibition, Ki for rat α-thrombin (fluorogenic substrate Z-Gly-Gly-Arg-AMC); type: biochemical; details: for Rat alpha thrombin inhibition, slope normalized to DMSO: replicates R1-R3
T1 construct: rat α-thrombin (Molecular Innovations) were used at final concentrations of 2 nM and 3 nM; purchased Molecular Innovations
Method: (§1) The inhibition constants (Ki) of cyclic peptides were calculated by measuring thrombin inhibition in the presence of different concentrations of the cyclic peptides. […] Human α-thrombin (Molecular Innovations) and rat α-thrombin (Molecular Innovations) were used at final concentrations of 2 nM and 3 nM, respectively, and fluorogenic substrate (Z-Gly-Gly-Arg-AMC, Bachem) was used at a concentration of 50 μM. Enzymatic activity was determined by measuring fluorescent gain on a Tecan Infinite M200 Pro microplate reader (excitation: 360 nm, emission: 465 nm) or a PHERAstar FSX microplate reader (excitation: 380 nm, emission: 440 nm) for 30 min at 25 °C with a fluorescent readout every 3 min. The two instruments were controlled with Tecan Infinite M200 Pro instrument software (iControl, version 1.12) and PHERAstar FSX software (version 5.70, edition 8), respectively. Protease inhibition was calculated by comparing the enzymatic activity to a control without cyclic peptide.
(§2) Half maximal inhibitory concentration (IC50) values were determined using a four-parameter logistic regression model in GraphPad Prism 9 to fit sigmoidal curves to the acquired data points according to equation (2) below.2 y=b+a−b/1+10^(logIC50−x)p where a and b represent the measured inhibition maximum and minimum, respectively; x is the logarithm of peptide concentration; y is the thrombin activity compared to a control without the cyclic peptide; and p is the Hill coefficient.
(§3) Ki values were calculated using the IC50 and the Cheng–Prusoff equation (equation (3)).3 Ki=IC50/1+S0/Km where Km is the Michaelis–Menten constant of the enzyme for the substrate used in the assay, and [S]0 is the initial substrate concentration.

[1] = Passive artificial membrane permeability (PAMPA);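 for Permeability% Average: top well sample relative to theoretical equilibrium sample by TIC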
human α-thrombin = human α-thrombin (Homo sapiens, UniProt P00734); experiment: Protease inhibition, Ki for human α-thrombin (fluorogenic substrate Z-Gly-Gly-Arg-AMC); type: biochemical; details: for Human alpha thrombin inhibition, slope normalized to DMSO: replicates R1-R3
Method: as §1, §2, §3

[2] = peptide concentration 1.00E+02 uM
[3] = peptide concentration 1.19E-05 uM
[4] = peptide concentration 1.22E-02 uM
[5] = peptide concentration 1.25E+01 uM
[6] = peptide concentration 1.53E-03 uM
[7] = peptide concentration 1.56E+00 uM
[8] = peptide concentration 1.91E-04 uM
[9] = peptide concentration 1.95E-01 uM
[10] = peptide concentration 2.38E-05 uM
[11] = peptide concentration 2.44E-02 uM
[12] = peptide concentration 2.50E+01 uM
[13] = peptide concentration 3.05E-03 uM
[14] = peptide concentration 3.12E+00 uM
[15] = peptide concentration 3.81E-04 uM
[16] = peptide concentration 3.91E-01 uM
[17] = peptide concentration 4.77E-05 uM
[18] = peptide concentration 4.88E-02 uM
[19] = peptide concentration 5.00E+01 uM
[20] = peptide concentration 6.10E-03 uM
[21] = peptide concentration 6.25E+00 uM
[22] = peptide concentration 7.63E-04 uM
[23] = peptide concentration 7.81E-01 uM
[24] = peptide concentration 9.54E-05 uM
[25] = peptide concentration 9.77E-02 uM

Ki (rat α-thrombin; average of R1-R3, read-out: Rat alpha thrombin inhibition, Ki Average): 1480 nM
Rat alpha thrombin inhibition, slope normalized to DMSO (rat α-thrombin; [2]): 8.5 and 10.5 and 9.7
Rat alpha thrombin inhibition, slope normalized to DMSO (rat α-thrombin; [3]): 107.2 and 105.4 and 103.1
Rat alpha thrombin inhibition, slope normalized to DMSO (rat α-thrombin; [4]): 105.9 and 100.2 and 97.5
Rat alpha thrombin inhibition, slope normalized to DMSO (rat α-thrombin; [5]): 28.9 and 25.6 and 11.1
Rat alpha thrombin inhibition, slope normalized to DMSO (rat α-thrombin; [6]): 104.7 and 100.1 and 100.7
Rat alpha thrombin inhibition, slope normalized to DMSO (rat α-thrombin; [7]): 60.2 and 60.7 and 63.3
Rat alpha thrombin inhibition, slope normalized to DMSO (rat α-thrombin; [8]): 101.0 and 93.6 and 80.4
Rat alpha thrombin inhibition, slope normalized to DMSO (rat α-thrombin; [9]): 77.4 and 91.6 and 90.6
Rat alpha thrombin inhibition, slope normalized to DMSO (rat α-thrombin; [10]): 99.9 and 95.1 and 101.1
Rat alpha thrombin inhibition, slope normalized to DMSO (rat α-thrombin; [11]): 106.7 and 94.6 and 110.9
Rat alpha thrombin inhibition, slope normalized to DMSO (rat α-thrombin; [12]): 3.6 and 15.7 and 17.5
Rat alpha thrombin inhibition, slope normalized to DMSO (rat α-thrombin; [13]): 104.4 and 102.5 and 99.7
Rat alpha thrombin inhibition, slope normalized to DMSO (rat α-thrombin; [14]): 54.9 and 53.5 and 52.8
Rat alpha thrombin inhibition, slope normalized to DMSO (rat α-thrombin; [15]): 103.0 and 99.2 and 100.1
Rat alpha thrombin inhibition, slope normalized to DMSO (rat α-thrombin; [16]): 58.4 and 57.7 and 87.4
Rat alpha thrombin inhibition, slope normalized to DMSO (rat α-thrombin; [17]): 109.2 and 85.2 and 99.3
Rat alpha thrombin inhibition, slope normalized to DMSO (rat α-thrombin; [18]): 100.3 and 95.3 and 106.1
Rat alpha thrombin inhibition, slope normalized to DMSO (rat α-thrombin; [19]): 16.0 and 15.4 and 14.7
Rat alpha thrombin inhibition, slope normalized to DMSO (rat α-thrombin; [20]): 102.6 and 94.5 and 101.1
Rat alpha thrombin inhibition, slope normalized to DMSO (rat α-thrombin; [21]): 50.1 and 39.5 and 38.6
Rat alpha thrombin inhibition, slope normalized to DMSO (rat α-thrombin; [22]): 102.8 and 105.9 and 89.3
Rat alpha thrombin inhibition, slope normalized to DMSO (rat α-thrombin; [23]): 79.5 and 71.2 and 76.6
Rat alpha thrombin inhibition, slope normalized to DMSO (rat α-thrombin; [24]): 103.0 and 96.4 and 84.9
Rat alpha thrombin inhibition, slope normalized to DMSO (rat α-thrombin; [25]): 100.1 and 93.3 and 83.6
IC50 (rat α-thrombin; single replicates R1-R3, read-out: Rat alpha thrombin inhibition, IC50): 2600 nM and 2780 nM and 2670 nM
PAMPA permeability: % permeability ([1]; 50 μM, 12–18 h, acceptor concentration relative to equilibrium): 42 ± 11%
Permeability% (single replicates R1–R3) ([1]; 50 μM, 13 h (Fig. 5d)): 47.12% and 50.47% and 29.38%
Permeability% Average ([1]; 50 μM, 13 h (Fig. 5d)): 42.3%
Papp at 50 μM ([1]; PAMPA, pH 7.4): 4.9 ×10⁻⁶ cm/s
Ki (human α-thrombin; average of R1-R3, read-out: Human alpha thrombin inhibition, Ki Average): 3780 nM
Human alpha thrombin inhibition, slope normalized to DMSO (human α-thrombin; [2]): 24.9 and 25.0 and 20.5
Human alpha thrombin inhibition, slope normalized to DMSO (human α-thrombin; [3]): 103.5 and 123.5 and 102.0
Human alpha thrombin inhibition, slope normalized to DMSO (human α-thrombin; [4]): 106.6 and 86.5 and 61.9
Human alpha thrombin inhibition, slope normalized to DMSO (human α-thrombin; [5]): 42.7 and 42.4 and 47.7
Human alpha thrombin inhibition, slope normalized to DMSO (human α-thrombin; [6]): 60.4 and 64.9 and 105.1
Human alpha thrombin inhibition, slope normalized to DMSO (human α-thrombin; [7]): 69.9 and 77.6 and 68.9
Human alpha thrombin inhibition, slope normalized to DMSO (human α-thrombin; [8]): 105.9 and 100.1 and 65.2
Human alpha thrombin inhibition, slope normalized to DMSO (human α-thrombin; [9]): 62.1 and 70.8 and 60.8
Human alpha thrombin inhibition, slope normalized to DMSO (human α-thrombin; [10]): 104.8 and 103.3 and 108.6
Human alpha thrombin inhibition, slope normalized to DMSO (human α-thrombin; [11]): 60.0 and 97.7 and 99.0
Human alpha thrombin inhibition, slope normalized to DMSO (human α-thrombin; [12]): 33.7 and 37.4 and 37.6
Human alpha thrombin inhibition, slope normalized to DMSO (human α-thrombin; [13]): 90.7 and 95.7 and 101.5
Human alpha thrombin inhibition, slope normalized to DMSO (human α-thrombin; [14]): 61.5 and 74.1 and 46.2
Human alpha thrombin inhibition, slope normalized to DMSO (human α-thrombin; [15]): 102.1 and 112.0 and 80.2
Human alpha thrombin inhibition, slope normalized to DMSO (human α-thrombin; [16]): 89.5 and 72.3
Human alpha thrombin inhibition, slope normalized to DMSO (human α-thrombin; [17]): 107.9 and 97.7 and 98.2
Human alpha thrombin inhibition, slope normalized to DMSO (human α-thrombin; [18]): 58.9 and 84.7 and 96.6
Human alpha thrombin inhibition, slope normalized to DMSO (human α-thrombin; [19]): 23.5 and 29.5 (2×)
Human alpha thrombin inhibition, slope normalized to DMSO (human α-thrombin; [20]): 76.0 and 102.5 and 99.2
Human alpha thrombin inhibition, slope normalized to DMSO (human α-thrombin; [21]): 68.9 and 63.0 and 35.5
Human alpha thrombin inhibition, slope normalized to DMSO (human α-thrombin; [22]): 61.7 and 101.5 and 87.5
Human alpha thrombin inhibition, slope normalized to DMSO (human α-thrombin; [23]): 99.5 and 72.0 and 89.1
Human alpha thrombin inhibition, slope normalized to DMSO (human α-thrombin; [24]): 106.0 and 103.1 and 118.2
Human alpha thrombin inhibition, slope normalized to DMSO (human α-thrombin; [25]): 62.3 and 75.9 and 55.0
Compound: O=C1C[C@H]2CCCN2C(=O)[C@H](Cc2ccccc2)NC(=O)[C@@H](NC(=O)c2ccc(Cl)s2)CC=CCCCN1 [compound 40]
Ki (rat α-thrombin; single replicates R1-R3, read-out: Rat alpha thrombin inhibition, Ki): 1.44 µM (2×) and 1.54 µM (2×) and 1.48 µM (2×)
